Among the data in patent publication US20140034581A1, “LIQUID PRODUCTS AND METHOD FOR EMULSIFYING OIL, AND USE THEREOF IN THE TREATMENT OF OIL CONTAMINATIONS” (MAN OIL GROUP AG, priority 2011, published 2014) are flash point values, retold here.

This data set is described as follows: flash point. Format: physicochemical. As to conditions: pure glycol component.

On to `CC(O)CO` (stereo not shown) [1,2-Propandiol], for which the flash point is above 102 °C.
